ChEMBL document CHEMBL4706603, “Discovery of VEGFR-2 inhibitors exerting significant anticancer activity against CD44+ and CD133+ cancer stem cells (CSCs): Reversal of TGF-β induced epithelial-mesenchymal transition (EMT) in hepatocellular carcinoma” (Eur J Med Chem, 2020)

Experiments:
[1] = test system: MCF7; test: Cytotoxicity against human MCF7 cells assessed as reduction in cell viability incubated for 24 hrs by MTT assay; type: functional, cell-based; conditions: for IC50: MCF7, 24 h
[2] = Inhibition of VEGF expression in human HUVEC assessed as mean fluorescence intensity at IC50 incubated for 48 hrs by FITC based flow cytometry analysis (reference value: 53.91+/- 0.95); type: functional
[3] = Inhibition of VEGFR2 expression in human HUVEC assessed as mean fluorescence intensity at IC50 incubated for 48 hrs by fluorescence microscopic analysis (reference value: 1.448 +/- 0.01); type: functional
[4] = test system: HUVEC; test: Induction of apoptosis in human HUVEC assessed as early apoptotic cells at IC50 incubated for 48 hrs by annexin V-FITC and PI staining based flow cytometry (reference value: <1%); type: functional
[5] = test system: HepG2; test: Cytotoxicity against human HepG2 cells assessed as reduction in cell viability incubated for 24 hrs by MTT assay; type: functional, cell-based; conditions: for IC50: HepG2, 24 h
[6] = test system: MDA-MB-231; test: Cytotoxicity against human MDA-MB-231 cells assessed as reduction in cell viability incubated for 24 hrs by MTT assay; type: functional, cell-based; conditions: for IC50: MDA-MB-231, 24 h
[7] = test system: HUVEC; test: Antiproliferative activity against human HUVEC assessed as reduction in cell viability incubated for 24 hrs by MTT assay; type: functional, cell-based
[8] = Inhibition of VEGFR2 expression in human HUVEC assessed as mean fluorescence intensity at IC50 incubated for 48 hrs by FITC based flow cytometry analysis (reference value: 49.24 +/- 0.47); type: functional
[9] = test system: HUVEC; test: Induction of apoptosis in human HUVEC assessed as late apoptotic cells at IC50 incubated for 48 hrs by annexin V-FITC and PI staining based flow cytometry; type: functional
[10] = test system: MDA-MB-231; test: Induction of apoptosis in human MDA-MB-231 cells assessed as early apoptotic cells at IC50 incubated for 72 hrs by Alexa Fluor488-annexin V/PI staining based flow cytometric analysis (Rvb= 0.6 %); type: functional
[11] = test system: Chorioallantoic membrane; test: Antiangiogenic activity in chicken fertilized egg chorioallantoic membrane measured upto 72 hrs by CAM assay; type: functional, tissue-based; conditions: Gallus gallus, dose 0.01-2 µM, time hrs <=72
[12] = test system: MDA-MB-231; test: Induction of apoptosis in human MDA-MB-231 cells assessed as necrotic cells at IC50 incubated for 72 hrs by Alexa Fluor488-annexin V/PI staining based flow cytometric analysis (Rvb= 0.0 %); type: functional
[13] = test system: MDA-MB-231; test: Induction of apoptosis in human MDA-MB-231 cells assessed as late apoptotic cells at IC50 incubated for 72 hrs by Alexa Fluor488-annexin V/PI staining based flow cytometric analysis (Rvb= 0.0 %); type: functional
[14] = test system: MDA-MB-231; test: Induction of apoptosis in human MDA-MB-231 cells assessed as viable cells at IC50 incubated for 72 hrs by Alexa Fluor488-annexin V/PI staining based flow cytometric analysis (Rvb= 99.4 %); type: functional

SMILES: COc1ccc(NC(=O)Nc2cccc3c(Oc4ccc([N+](=O)[O-])cc4)cccc23)cc1
- inhibition [1]: Dose-dependent effect

SMILES: O=C(Nc1ccccc1)Nc1cccc2c(Oc3ccc([N+](=O)[O-])cc3)cccc12
- inhibition [1]: Dose-dependent effect
- IC50 [1]: 0.953 µM

SMILES: O=C(Nc1ccccc1)Nc1cccc2c(O)cccc12
- inhibition [1]: Dose-dependent effect

SMILES: O=C(Nc1cccc(C(F)(F)F)c1)Nc1cccc2c(Oc3ccc([N+](=O)[O-])cc3)cccc12
- inhibition [1]: Dose-dependent effect
- IC50 [1]: 0.953 µM

SMILES: O=C(Nc1ccc(Cl)c(C(F)(F)F)c1)Nc1cccc2c(Oc3ccc([N+](=O)[O-])cc3)cccc12
- inhibition [1]: Dose-dependent effect
- IC50 [1]: 0.953 µM

SMILES: O=C(Nc1cccc(C(F)(F)F)c1)Nc1cccc2c(O)cccc12
- inhibition [1]: Dose-dependent effect
- IC50 [1]: 0.953 µM

SMILES: CNC(=O)c1cc(Oc2ccc(NC(=O)Nc3ccc(Cl)c(C(F)(F)F)c3)cc2)ccn1.Cc1ccc(S(=O)(=O)O)cc1 [SORAFENIB TOSYLATE]
- IC50 [1]: 1.38 µM
- Flu intensity [2]: 7.14
- Flu intensity [3]: 1.1
- Activity [4]: 24.5%
- IC50 [5]: 0.215 µM
- IC50 [6]: 0.349 µM
- IC50 [7]: 1.95 µM
- Flu intensity [8]: 6.45
- Activity [9]: 25.6%

SMILES: CC(=O)Nc1ccc(Oc2cccc3c(NC(=O)Nc4ccccc4)cccc23)cc1
- Activity [10]: 46.37%
- Activity [11]: Dose-dependent effect
- inhibition [1]: Dose-dependent effect
- Activity [12]: 4.5%
- inhibition [5]: Dose-dependent effect
- IC50 [5]: 0.258 µM
- inhibition [6]: Dose-dependent effect
- IC50 [6]: 1.41 µM
- Activity [13]: 27.4%
- Activity [14]: 21.2%

SMILES: CC(=O)Nc1ccc(Oc2cccc3c(NC(=O)Nc4ccc(Cl)c(C(F)(F)F)c4)cccc23)cc1
- Activity [10]: 47%
- Activity [11]: Dose-dependent effect
- inhibition [1]: Dose-dependent effect
- Activity [12]: 4.6%
- inhibition [5]: Dose-dependent effect
- IC50 [5]: 0.258 µM
- inhibition [6]: Dose-dependent effect
- IC50 [6]: 1.41 µM
- Activity [13]: 27.5%
- Activity [14]: 20.9%
